According to patent US4812583A, “Substituted acyloxyalkylphenylethylene inhibitors of 3-hydroxy-3-methylglutaryl-coa reductase” (American Home Products Corporation, priority 1987, dated 1989):
Where two headings read alike, the source gives them in different places.

Tests used:
HMG-CoA Reductase = target: T1, HMG-CoA Reductase (Rattus norvegicus, UniProt P51639); experiment: Inhibition of HMG-CoA reductase (rat liver microsomal fraction, [14C] HMG-CoA); assay type: biochemical; settings: rat liver microsomal enzyme, pH 7.5, 37° C., 20 min
T1 construct: the microsomal fraction is isolated by differential ultra centrifugation to obtain the HMG-CoA reductase enzyme; from tissue; host or cells: rat liver, microsomal fraction (cholestyramine-fed rats)
T1 sequence (P51639 1-887): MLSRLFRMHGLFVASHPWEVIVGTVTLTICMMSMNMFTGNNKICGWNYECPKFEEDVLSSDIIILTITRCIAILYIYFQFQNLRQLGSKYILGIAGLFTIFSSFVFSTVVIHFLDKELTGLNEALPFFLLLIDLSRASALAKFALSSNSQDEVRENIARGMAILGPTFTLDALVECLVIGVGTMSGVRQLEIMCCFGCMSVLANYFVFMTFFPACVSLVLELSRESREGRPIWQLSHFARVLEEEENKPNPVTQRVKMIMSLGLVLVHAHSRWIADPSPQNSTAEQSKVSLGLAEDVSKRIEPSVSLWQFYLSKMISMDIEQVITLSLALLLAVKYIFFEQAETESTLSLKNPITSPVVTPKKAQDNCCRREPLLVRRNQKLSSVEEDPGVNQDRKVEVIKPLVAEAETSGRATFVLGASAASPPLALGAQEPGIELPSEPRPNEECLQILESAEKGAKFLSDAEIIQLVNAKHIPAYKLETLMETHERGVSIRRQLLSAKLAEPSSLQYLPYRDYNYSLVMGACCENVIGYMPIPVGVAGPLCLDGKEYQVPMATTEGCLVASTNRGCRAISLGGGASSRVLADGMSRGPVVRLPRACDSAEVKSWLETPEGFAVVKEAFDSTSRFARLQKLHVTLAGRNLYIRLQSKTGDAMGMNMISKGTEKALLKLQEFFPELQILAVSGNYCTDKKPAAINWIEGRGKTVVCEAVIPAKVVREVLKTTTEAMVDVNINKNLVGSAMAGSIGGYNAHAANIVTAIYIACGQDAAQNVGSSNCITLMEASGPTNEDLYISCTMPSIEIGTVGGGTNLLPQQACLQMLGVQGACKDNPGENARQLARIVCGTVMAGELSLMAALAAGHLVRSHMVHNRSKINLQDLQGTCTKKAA
Excerpt: The HMG-CoA reductase inhibitory properties of representative compounds of this invention were established by subjecting the compounds to the following standard experimental test procedure adapted from Rodwell et al., Adv. Lipid Res. 14 1, 1976; Endo et al., FEBS Letters 72 323, 1976; and Tanzawa et al., Biochemia et Biophysica Acta 488 97, 1977.
Rat livers obtained from rats fed on a diet containing 3% cholestyramine and maintained on a reverse lighting regimen for three weeks are homogenized and the microsomal fraction is isolated by differential ultra centrifugation to obtain the HMG-CoA reductase enzyme. To a preincubated (five minutes at 37° C.) solution of the compound being tested (as either the lactone and/or dihydroxy sodium carboxylate in amounts from 10^-3 to 10^-6 M) in TEDKS100 pH (Tris® 40 mM; EDTA 1 mM; dithiothreitol 5 mM; KCl 70 mM; sucrose 100 mM) 7.5 buffer or DMSO dissolved in an assay medium containing 20 μl of 2.5M KCl; 20 μl NADPH (reduced nicotinamide adenine dinucleotide phosphate) (7.5 mM); and 40 μl of labeled (RS) HMG-CoA (3-^14 C; […]; 200 μM) is added 10 μl of preincubated (five minutes at 37° C.) microsomal fraction (produced above) to obtain a total volume of 125 μl. After a twenty minute incubation period at 37° C., reaction of the enzyme is terminated by addition of 10 μl of 70% of HClO4. The assay tubes are then centrifuged for two minutes in a Beckman microfuge II.
To 100 μl of the supernatant liquid is added 10 μl of non-radioactivemevalonic acid lactone (0.25M in 8 mM H2 SO4). An aliquot of the sample is eluted with 8 mM H2 SO4 through Bio Rad Aminex HPX-87H (HPLC; Hewlett-Packard Model 1084B) at a flow rate of 1 mL/minute. The effluent is fractionated, Hydrofluor® is added and radioactivity of the [^14 C] mevalonolactone produced by reduction of [^14 C] HMG-CoA determined with a scintillation counter.
The percent inhibition of HMG-CoA reductase activity is obtained by comparison with a control assay devoid of the test compound. The inhibitory concentration (IC50) is calculated for the various test compounds.

[1] = test system: biosynthesis of cholesterol; settings: background; cited from earlier work
[2] = Dihydroxycarboxylate form (dihydroxy sodium carboxylate), read-out: Inhibition of HMG-CoA Reductase (IC50, M), Dihydroxycarboxylate
[3] = Lactone form, read-out: Inhibition of HMG-CoA Reductase (IC50, M), Lactone

Structure (SMILES)	IC50 (HMG-CoA Reductase; [2]) [M]	IC50 (HMG-CoA Reductase; [3]) [M]	inhibition of cholesterol biosynthesis, in words [1]
CCCCCCCCCC(OC(=O)C(C)(C)CC)c1cc(C)cc(C)c1/C=C/[C@@H]1C[C@@H](O)CC(=O)O1 (relative stereo) [Example 2, 2,2-Dimethylbutanoic acid[4α,6β(E)]-1-[2-[2-(tetrahydro-4-hydroxy-6-oxo-2H-pyran-2-yl)ethenyl]-3,5-dimethylphenyl]decyl ester]	> 0.0001	> 0.001	–
CC[C@H](C)C(=O)O[C@H]1C[C@@H](C)C=C2C=C[C@H](C)[C@H](CC[C@@H]3C[C@@H](O)CC(=O)O3)[C@H]21 [Mevinolin, reference compound]	5e-09	6e-07	more effectively
CC[C@H](C)C(=O)O[C@H]1CCC=C2C=C[C@H](C)[C@H](CC[C@@H]3C[C@@H](O)CC(=O)O3)[C@H]21 [compactin]	–	–	could be inhibited

More lines, main results first:

IC50 (HMG-CoA Reductase; [2]) [M]	IC50 (HMG-CoA Reductase; [3]) [M]	Structure (SMILES)	inhibition of cholesterol biosynthesis, in words [1]
1.7e-06	2.7e-06	CCCC(OC(=O)C(C)(C)CC)c1cc(C)cc(C)c1/C=C/[C@@H]1C[C@@H](O)CC(=O)O1 (relative stereo) [Example 1]	–
6.2e-06	0.0017	CCC(C)(C)C(=O)OC(c1ccccc1)c1cc(C)cc(C)c1/C=C/[C@@H]1C[C@@H](O)CC(=O)O1 (relative stereo) [Example 3, 2,2-Dimethylbutanoic acid[4α,6β,(E)]-[[3,5-dimethyl-[2-[2-tetrahydro-4-hydroxy-6-oxo-2H-pyran-2-yl]ethenyl]phenyl]phenylmethyl]ester]	–
4e-05	5.7e-05	CCC(C)(C)C(=O)OCc1cc(C)cc(C)c1/C=C/[C@@H]1C[C@@H](O)CC(=O)O1 (relative stereo) [Example 4]	–
